Tests used:
HepG2 cells = assay: MTT antitumour assay, HepG2; format: cell-based; conditions: human hepato-cellular carcinoma cell line, mean ± SD, n = 3
Protocol: (§1) The evaluation of the antitumour activity was performed using tetrazolium salt MTT (3-(4,5-dimethyl-2-thiazolyl)-2,5-diphenyl-2H-tetrazolium bromide) assay as reported[62]^,[63].
(§2) The designed compounds were evaluated for their in vitro antitumour effects via the standard 3-(4,5-dimethylthiazol-2-yl)-2,5-diphenyltetrazolium bromide (MTT) method against a panel of four human tumour cell lines; namely, hepatocellular carcinoma cell line (HepG2), breast cancer cell line (MCF-7), human cervical cancer cell line (HeLa), and prostate cancer cell line (PC-3)[62]^,[63]^,[72]. The antitumour activities of the designed compounds 4–12, along with that of the reference drugs 5-FU and afatinib are shown in Table 1.

PC-3 cells = assay: MTT antitumour assay, PC-3; format: cell-based; conditions: human prostate cancer cell line, mean ± SD, n = 3
Protocol: as §1, §2

MCF-7 cells = assay: MTT antitumour assay, MCF-7; format: cell-based; conditions: MCF7, human breast adenocarcinoma cell line, mean ± SD, n = 3
Protocol: as §1, §2

[1] = ABTS radical cation scavenging (antioxidant) assay; conditions: 20 µl of 1 mg/ml test sample (L-ascorbic acid 20 µl, 2 mM)
Protocol: The absorbance (Acontrol) of a green-blue solution (ABTS^+ radical solution) resulted from a mixture of ABTS and manganese dioxide (MnO2) and was recorded at λmax 734 nm, according to the reported procedure[64]^,[65]. The absorbance (Atest) was measured upon the addition of 20 µl of 1 mg/ml solution of the test sample in spectroscopic grade methanol/phosphate buffer (1:1 v/v) to the ABTS solution. The decrease in absorbance is expressed as % inhibition, which can be calculated from the following equation: % inhibition = Acontrol-Atest/Acontrol×100.
L-Ascorbic acid 20 µl (2 mM) solution was used as standard antioxidant (positive control). A blank sample was run using only methanol/phosphate buffer (1:1), while the negative control was run with ABTS and the methanol/phosphate buffer.
The assay is based on measuring the ability of the tested compounds to scavenge the long-life radical cation of ABTS[22]^,[43]^,[64]^,[65].

HeLa cells = assay: MTT antitumour assay, HeLa; format: cell-based; conditions: human cervical epithelioid carcinoma cell line, mean ± SD, n = 3
Protocol: as §1
as §2, with “(PC-3)[62]^,[63]^,[72].” for “(PC-3)[62]^,[63]^,[72]. The antitumour activities of the designed compounds 4–12, along with that of the reference drugs 5-FU and afatinib are shown in Table 1.”

EGFR kinase = EGFR kinase (Homo sapiens, UniProt P00533); assay: ELISA-based EGFR kinase inhibition assay; conditions: for Conc. (Average), ELISA read-out: duplicate wells, standards in ng/ml, cont 134.9
[2] = test system: HepG2, MCF-7, HeLa, and PC-3 cancer cell lines; assay: MTT antitumour assay, range over the four cell lines; format: cell-based, human; conditions: Homo sapiens, range over HepG2, MCF-7, HeLa, PC-3 (and over the compounds named), read-out: IC50 range against the tested cell lines
Protocol: as §1, §2

EGFR kinase, sequence (P00533 25-1210): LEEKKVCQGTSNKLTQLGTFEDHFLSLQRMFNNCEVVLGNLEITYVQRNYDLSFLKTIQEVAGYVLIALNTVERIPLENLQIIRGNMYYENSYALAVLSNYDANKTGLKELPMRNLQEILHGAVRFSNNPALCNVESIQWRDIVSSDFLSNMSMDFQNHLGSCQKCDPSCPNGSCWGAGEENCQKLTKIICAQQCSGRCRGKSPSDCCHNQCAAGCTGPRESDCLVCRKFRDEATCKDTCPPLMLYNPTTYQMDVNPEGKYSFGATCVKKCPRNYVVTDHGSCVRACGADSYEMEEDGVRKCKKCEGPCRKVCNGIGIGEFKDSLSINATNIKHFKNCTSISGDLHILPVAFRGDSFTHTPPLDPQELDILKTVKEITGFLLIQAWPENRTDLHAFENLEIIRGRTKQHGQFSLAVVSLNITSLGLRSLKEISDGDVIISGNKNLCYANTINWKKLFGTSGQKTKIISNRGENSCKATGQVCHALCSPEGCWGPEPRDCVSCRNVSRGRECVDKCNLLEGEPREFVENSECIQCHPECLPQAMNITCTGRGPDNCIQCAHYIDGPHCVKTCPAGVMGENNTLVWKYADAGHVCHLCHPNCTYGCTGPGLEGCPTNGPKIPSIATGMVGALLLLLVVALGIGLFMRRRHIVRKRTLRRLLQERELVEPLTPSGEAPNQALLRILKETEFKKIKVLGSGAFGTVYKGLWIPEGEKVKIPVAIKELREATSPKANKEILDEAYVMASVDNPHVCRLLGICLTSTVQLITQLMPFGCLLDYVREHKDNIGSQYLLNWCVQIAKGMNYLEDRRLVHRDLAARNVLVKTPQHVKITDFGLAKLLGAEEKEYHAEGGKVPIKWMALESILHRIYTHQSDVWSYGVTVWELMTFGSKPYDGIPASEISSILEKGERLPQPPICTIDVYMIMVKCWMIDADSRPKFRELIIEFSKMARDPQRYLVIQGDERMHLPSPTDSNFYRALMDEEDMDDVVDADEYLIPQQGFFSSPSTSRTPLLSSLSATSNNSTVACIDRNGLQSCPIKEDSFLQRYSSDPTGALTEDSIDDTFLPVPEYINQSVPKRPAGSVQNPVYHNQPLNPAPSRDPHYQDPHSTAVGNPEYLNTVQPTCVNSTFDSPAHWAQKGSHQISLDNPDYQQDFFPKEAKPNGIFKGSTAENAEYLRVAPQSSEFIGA

Q: What does the source list for O=C1CCCCCC1=Cc1ccc(OC2CCCC2)cc1 [5c, 2-(4-(Cyclopentyloxy)benzylidene)cycloheptanone]?
A: IC50 (HepG2 cells): 71.3 ± 4.53 µM; IC50 (PC-3 cells; PC-3, MTT): 26.9 ± 1.89 µM; IC50 (MCF-7 cells): 64.7 ± 4.27 µM; %Inhibition of the ABTS radical cation [1]: 51.0%; IC50 (HeLa cells): 37.5 ± 2.81 µM

Q: Which IC50 (EGFR kinase) does the source give for CCN1CCC(=O)C(=Cc2ccc(OC3CCCC3)cc2)C1 [6b, 3-(4-(Cyclopentyloxy)benzylidene)-1-ethylpiperidin-4-one] here?
A: 0.56 µM

Q: What about the “% Inhibition EGFR” value (EGFR kinase; 0.15 μM) of the same compound?
A: 26.52%

Q: What about the “% Inhibition EGFR” value (EGFR kinase; 0.31 μM) of the same compound?
A: 48.95%

Q: And the “% Inhibition EGFR” value (EGFR kinase; 0.625 μM)?
A: 55.33%

Q: What about the “% Inhibition EGFR” value (EGFR kinase; 1.25 μM) of the same compound?
A: 61.23%

Q: What about the “% Inhibition EGFR” value (EGFR kinase; 2.5 μM) of the same compound?
A: 64.44%

Q: What about the “% Inhibition EGFR” value (EGFR kinase; 5.0 μM) of the same compound?
A: 76.71%

Q: And the “% Inhibition EGFR” value (EGFR kinase; 10.0 μM)?
A: 83.66%

Q: What about the inhibition at 0.15 µM (EGFR kinase; read-out: % Inhibition EGFR, 0.15 μM) of the same compound?
A: 26.5%

Q: And the inhibition at 0.31 µM (EGFR kinase; read-out: % Inhibition EGFR, 0.31 μM)?
A: 49%

Q: What about the inhibition at 0.625 µM (EGFR kinase; read-out: % Inhibition EGFR, 0.625 μM) of the same compound?
A: 55.3%

Q: What about the inhibition at 1.25 µM (EGFR kinase; read-out: % Inhibition EGFR, 1.25 μM) of the same compound?
A: 61.2%

Q: What about the inhibition at 2.5 µM (EGFR kinase; read-out: % Inhibition EGFR, 2.5 μM) of the same compound?
A: 64.4%

Q: What about the inhibition at 5 µM (EGFR kinase; read-out: % Inhibition EGFR, 5.0 μM) of the same compound?
A: 76.7%

Q: And the inhibition at 10 µM (EGFR kinase; read-out: % Inhibition EGFR, 10.0 μM)?
A: 83.7%

Q: What about the “Conc. (Average), ELISA read-out” value (EGFR kinase; sample at 0.15uM) of the same compound?
A: 99.12

Q: And the “Conc. (Average), ELISA read-out” value (EGFR kinase; sample at 0.31uM)?
A: 68.86

Q: What about the “Conc. (Average), ELISA read-out” value (EGFR kinase; sample at 0.62uM) of the same compound?
A: 60.25

Q: And the “Conc. (Average), ELISA read-out” value (EGFR kinase; sample at 1.25uM)?
A: 52.29

Q: And the “Conc. (Average), ELISA read-out” value (EGFR kinase; sample at 2.5uM)?
A: 47.96

Q: And the “Conc. (Average), ELISA read-out” value (EGFR kinase; sample at 5uM)?
A: 31.41

Q: What about the “Conc. (Average), ELISA read-out” value (EGFR kinase; sample at 10uM) of the same compound?
A: 22.04

Q: And the IC50 [2]?
A: 5.5 to 18.1 µM

Q: What about the IC50 (HepG2 cells) of the same compound?
A: 13 ± 0.87 µM

Q: What about the IC50 (PC-3 cells; PC-3, MTT) of the same compound?
A: 9.1 ± 0.88 µM

Q: What about the IC50 (MCF-7 cells) of the same compound?
A: 13.7 ± 1.35 µM

Q: And the “%Inhibition of the ABTS radical cation” value [1]?
A: 55.1%

Q: What about the IC50 (HeLa cells) of the same compound?
A: 6.7 ± 0.67 µM

Q: For O=c1[nH]cc(F)c(=O)[nH]1 [5-FU, 5-fluorouracil, reference compound], which IC50 [2] is on record?
A: 4.8 to 8.3 µM

Q: What about the IC50 (HepG2 cells) of the same compound?
A: 7.9 ± 0.17 µM

Q: What about the IC50 (PC-3 cells; PC-3, MTT) of the same compound?
A: 8.3 ± 0.35 µM

Q: And the IC50 (MCF-7 cells)?
A: 5.4 ± 0.2 µM

Q: And the IC50 (HeLa cells)?
A: 4.8 ± 0.21 µM

Q: Which IC50 (HepG2 cells) does the source give for O=C1CCCC1=Cc1ccc(OC2CCCC2)cc1 [5a, 2-(4-(Cyclopentyloxy)benzylidene)cyclopentanone] here?
A: > 100 µM

Q: And the IC50 (PC-3 cells; PC-3, MTT)?
A: 94.1 ± 5.82 µM

Q: And the IC50 (MCF-7 cells)?
A: > 100 µM

Q: What about the IC50 (HeLa cells) of the same compound?
A: 77.8 ± 4.41 µM

Q: What does the source list for Cc1ccc(C(=O)C=Cc2ccc(OC3CCCC3)cc2)cc1 [4b, 3-(4-(Cyclopentyloxy)phenyl)-1-(4-methylphenyl)prop-2-en-1-one]?
A: IC50 (HepG2 cells): 20 ± 1.11 µM; IC50 (PC-3 cells; PC-3, MTT): 17.1 ± 1.58 µM; IC50 (MCF-7 cells): 36.4 ± 2.6 µM; %Inhibition of the ABTS radical cation [1]: 52.6%; IC50 (HeLa cells): 18.8 ± 1.57 µM

Q: For CN(C)C/C=C/C(=O)Nc1cc2c(Nc3ccc(F)c(Cl)c3)ncnc2cc1O[C@H]1CCOC1 [Afatinib, reference compound], which IC50 [2] is on record?
A: 5.4 to 7.6 µM

Q: And the IC50 (HepG2 cells)?
A: 5.4 ± 0.25 µM

Q: What about the IC50 (PC-3 cells; Homo sapiens, PC-3, MTT) of the same compound?
A: 7.6 µM

Q: What about the IC50 (PC-3 cells; MTT) of the same compound?
A: 7.7 ± 0.57 µM

Q: And the IC50 (MCF-7 cells)?
A: 7.1 ± 0.49 µM

Q: And the IC50 (HeLa cells)?
A: 6.2 ± 0.67 µM

Q: With O=C1CCCCC1=Cc1ccc(OC2CCCC2)cc1 [5b, 2-(4-(Cyclopentyloxy)benzylidene)cyclohexanone] as the compound, how does the IC50 (HepG2 cells) read?
A: 55.4 ± 3.95 µM

Q: What about the IC50 (PC-3 cells; PC-3, MTT) of the same compound?
A: 71.1 ± 4.93 µM

Q: What about the IC50 (MCF-7 cells) of the same compound?
A: 49.4 ± 3.16 µM

Q: And the “%Inhibition of the ABTS radical cation” value [1]?
A: 51.4%

Q: And the IC50 (HeLa cells)?
A: 30.1 ± 2.24 µM

Q: For CC(=O)C=Cc1ccc(OC2CCCC2)cc1 [4a, 4-(4-(Cyclopentyloxy)phenyl)but-3-en-2-one], which IC50 [2] is on record?
A: 21.8 to 40.9 µM

Q: What about the IC50 (HepG2 cells) of the same compound?
A: 27.3 ± 1.96 µM

Q: And the IC50 (PC-3 cells; PC-3, MTT)?
A: 21.8 ± 1.68 µM

Q: And the IC50 (MCF-7 cells)?
A: 40.9 ± 2.79 µM

Q: What about the “%Inhibition of the ABTS radical cation” value [1] of the same compound?
A: 52.0%

Q: What about the IC50 (HeLa cells) of the same compound?
A: 25.7 ± 1.97 µM

Q: For O=C1O[C@H]([C@@H](O)CO)C(O)=C1O [Ascorbic acid, L-Ascorbic acid, reference compound], which “%Inhibition of the ABTS radical cation” value [1] is on record?
A: 90.0%

From article PMC6010098, “Synthesis, antitumour and antioxidant activities of novel α,β-unsaturated ketones and related heterocyclic analogues: EGFR inhibition and molecular modelling study” (Journal of Enzyme Inhibition and Medicinal Chemistry, 2018)
